Data from publication PMC4043666, “Mass Spectrometry Based Identification of Geometric Isomers during Metabolic Stability Study of a New Cytotoxic Sulfonamide Derivatives Supported by Quantitative Structure-Retention Relationships” (PLoS ONE, 2014).

What was measured:
[1] = In vitro metabolic stability in human liver microsomes (LC-MS); assay type: in vitro ADME; details: for % of compound remaining after 120 min incubation: HLM 0.53 mg/mL, 1 mM NADPH, compound 10 µM, phosphate buffer pH 7.4, 37°C, percentage of peak area of trans isomer at start of incubation
Description: Stock solutions of the studied compounds were made at a concentration of 1 mM in DMSO:MeOH mixture (10∶90 v/v) to prevent their precipitation. For biotransformation incubations, the solution of compounds was diluted to 10 µM with the presence of 1 mM of NADPH (Sigma-Aldrich, St. Louis, MO, USA) in a potassium phosphate buffer (0.1 M, pH 7.4). Incubation was carried out in thermoblock (Labnet International, Edison, NJ, USA) at 37°C and started with the addition of pooled human liver microsomes with a final concentration of 0.53 mg/mL (Sigma-Aldrich, St. Louis, MO, USA). Directly after HLM was added and at 120 min of incubation the reaction was ended by the addition of an equal volume of ice-cold methanol with 0.1% (v/v) of formic acid. The samples were immediately centrifuged (10 min at 11700 g) and the resulting supernatant was directly analyzed or kept at −80°C until LC-MS or LC-QTOF-MS analysis.
(§1) LC-MS analysis was performed on an Agilent 1260 system coupled to a SingleQuad 6120 mass spectrometer (Agilent Technologies, Santa Clara, CA, USA). The amount of remaining parent compound was determined as a percentage of a peak area of a trans isomer at the start of the incubation.
(§2) A Poroshell C18 EC120 column (3.0×100 mm, 2.7 µm, Agilent Technologies, Santa Clara, CA, USA) was used in reversed-phase mode with gradient elution starting with 5% of phase A (0.1% formic acid in water) and 95% of phase B (0.1% formic acid in acetonitrile). […] The total analysis time was 42 min at 25°C, the flow rate was 0.25 mL/min and the injection volume was 20 µL. The mass spectrometer was equipped with an electrospray ionization source and the ionization mode was positive. The mass analyzer was set individually to each derivative to detect pseudomolecular ions [M+H^+]. The mass spectrometry detector parameters of the ESI source were as follows: nebulizer pressure 40 psi (N2), drying gas […] (N2), drying gas temperature 300°C, capillary voltage +3 kV.

[2] = Chemical stability / cis-trans isomerization in solution (LC-MS); assay type: physicochemical; details: for % of isomerization at the beginning of incubation: biotransformation incubation samples, start of incubation
Description: Additionally, chemical stability (negative control) in biotransformation experiment conditions was performed (phosphate buffer, 37°C, 2 h) to evaluate possible instability, unrelated to the activity of microsomes (including putative isomerization).
as §1, §2

[3] = RP-LC determination of chromatographic lipophilicity log kw (DryLab); assay type: physicochemical; details: Poroshell EC18 column, 30°C, acetonitrile 5-100% gradients of 30 and 60 min, calculated with DryLab
Description: (2) In order to obtain input lipophilicity data, reversed-phase liquid chromatography (RP-LC) log kw determination experiments were performed using the Agilent 1260 apparatus (Agilent Technologies, Santa Clara, CA, USA) equipped with UV and single quadrupole mass detectors, and an autosampler and column thermostat. A Poroshell EC18 150×3 mm column with a particle size of 2.7 µm was applied. Chromatographic measurements were made at 30°C with an eluent flow rate of 0.25 mL/min. Two chromatographic runs were conducted for each compound with different linear gradient times (30 and 60 min), and with an acetonitrile composition in the mobile phase increasing from 5% to 100%. The obtained retention times were further used to calculate log kw values applying the DryLab 2000 Plus software (LC Resources, Walnut Creek, CA, USA). DryLab estimated the log kw value according to the linear equation: log k = logkw+Sφ (k – retention factor, S – slope, φ – volume fraction of the organic modifier) The elution program, as well as the column, mobile phase and instrument properties were taken into account to determine the coefficients in the abovementioned equation. Two analytical runs were required to fit the data, and peak assignment was done manually to ensure the correct identification.

Compound | % of compound remaining after 120 min incubation [1] [%] | % of isomerization at the beginning of incubation [2] [%] | cis-trans isomerization in the studied conditions ([2]; water solution / incubation conditions) | logkw [3] | biotransformation reactions observed ([1]; HLM with NADPH, LC-MS/MS)
Cc1cc(S(N)(=O)=O)c(S/C(=N/Nc2ccc([N+](=O)[O-])cc2)c2ccc([N+](=O)[O-])cc2)cc1Cl [Compound 11] | 98.97 | 1.50 | – | – | –
Cc1cc(S(N)(=O)=O)c(S/C(=N/Nc2ccc([N+](=O)[O-])cc2)C(C)C)cc1Cl [Compound 3] | 76.13 | 7.76 | – | – | –
CCCCC/C(=N\Nc1ccc([N+](=O)[O-])cc1)Sc1cc(Cl)c(C)cc1S(N)(=O)=O [Compound 7] | 60.90 | 5.53 | – | – | –
Cc1cc(S(N)(=O)=O)c(S/C(=N/Nc2ccc([N+](=O)[O-])cc2[N+](=O)[O-])C(C)C)cc1Cl [Compound 4] | 62.86 | 0.00 | did not occur | – | –
Cc1cc(S(N)(=O)=O)c(S/C(=N/Nc2ccc([N+](=O)[O-])cc2)C(C)(C)C)cc1Cl [Compound 6] | 83.88 | 3.50 | – | – | –
COc1ccc(/C(=N\Nc2ccc([N+](=O)[O-])cc2)Sc2cc(Cl)c(C)cc2S(N)(=O)=O)cc1 [Compound 13] | 95.33 | 2.66 | – | – | –
Cc1cc(S(N)(=O)=O)c(S/C(CC(C)C)=N/Nc2ccc([N+](=O)[O-])cc2)cc1Cl [Compound 5] | 79.95 | 5.84 | – | – | –
Cc1cc(S(N)(=O)=O)c(S/C(=N/Nc2ccc([N+](=O)[O-])cc2)c2ccc3ccccc3c2)cc1Cl [Compound 15] | 99.40 | 4.93 | – | – | –
Cc1cc(S(N)(=O)=O)c(S/C(=N/Nc2ccc([N+](=O)[O-])cc2)c2ccc(Cl)cc2)cc1Cl [Compound 10] | 90.80 | 7.79 | – | – | –
Cc1cc(S(N)(=O)=O)c(S/C(=N/Nc2ccc([N+](=O)[O-])cc2)c2ccccc2)cc1Cl [Compound 9] | 96.03 | 9.28 | – | – | –
Cc1cc(S(N)(=O)=O)c(S/C(CCc2ccccc2)=N/Nc2ccc([N+](=O)[O-])cc2)cc1Cl [Compound 8] | 58.23 | 5.25 | – | – | –
CCC(=NNc1ccc([N+](=O)[O-])cc1)Sc1cc(Cl)c(C)cc1S(N)(=O)=O [Compound 1] | 53.51 | 5.84 | – | – | –
Cc1ccc(/C(=N\Nc2ccc([N+](=O)[O-])cc2)Sc2cc(Cl)c(C)cc2S(N)(=O)=O)cc1 [Compound 12] | 95.11 | 5.41 | – | – | –
CCC/C(=N\Nc1ccc([N+](=O)[O-])cc1)Sc1cc(Cl)c(C)cc1S(N)(=O)=O [Compound 2] | 75.13 | 6.52 | – | – | –
CC/C(=N/Nc1ccc([N+](=O)[O-])cc1)Sc1cc(Cl)c(C)cc1S(N)(=O)=O [1-cis] | – | – | – | 3.52 | –
CC/C(=N\Nc1ccc([N+](=O)[O-])cc1)Sc1cc(Cl)c(C)cc1S(N)(=O)=O [1-trans] | – | – | – | 3.60 | –
Cc1cc(S(N)(=O)=O)c(SC(=NNc2ccc([N+](=O)[O-])cc2)c2ccc(O)c(Br)c2)cc1Cl [Compound 14] | 74.88 | – | – | – | reductive debromination reaction
